Measurements published in ChEMBL document CHEMBL1136100, “4-Aminopiperidine derivatives as a new class of potent cognition enhancing drugs” (2003).

Key:
Type in all cases: functional
[1] = organism: Mus musculus; experiment: Difference between entry latency of cognition enhancing activity between 2nd day and 1st day
[2] = organism: Mus musculus; experiment: Cognition enhancing activity was evaluated by mouse passive-avoidance test using Scopolamine as amnesing drug after 2nd day
[3] = organism: Mus musculus; experiment: Cognition enhancing activity was evaluated by mouse passive-avoidance test using Scopolamine as amnesing drug after 1st day
[4] = system: Mus musculus; experiment: Cognition enhancing activity was evaluated by mouse passive-avoidance test using Scopolamine as amnesing drug administered intraperitoneally

With CC(=O)N1CCC(NS(=O)(=O)C(C)C)CC1 as the compound, how does the Entry latency [1] read?
Its Entry latency is 84.2 s.

What about the Entry latency [2] of the same compound?
Its Entry latency is 99.3 s.

What about the Entry latency [3] of the same compound?
The Entry latency was 15.1 s.

And the Min effective dose [4]?
Its Min effective dose is 10 mg/kg.

What does the source list for CC(=O)NC1CCN(S(=O)(=O)c2ccc(F)cc2)CC1?
Entry latency [1]: 76.1 s; Entry latency [2]: 90.6 s; Entry latency [3]: 14.5 s; Min effective dose [4]: 0.01 mg/kg

Which results are given for CCC(=O)N1CCC(NS(=O)(=O)c2ccc(F)cc2)CC1?
Entry latency [1]: 103 s; Entry latency [2]: 108.2 s; Entry latency [3]: 15.6 s; Min effective dose [4]: 10 mg/kg

Which results are given for CCC(=O)N1CCC(NC(=O)c2ccccc2)CC1?
Entry latency [1]: 103.1 s; Entry latency [2]: 122.8 s; Entry latency [3]: 19.7 s; Min effective dose [4]: 0.1 mg/kg

How did the Entry latency [1] turn out when CC(=O)NC1CCN(S(=O)(=O)C(C)C)CC1 was run?
Its Entry latency is 75.4 s.

What about the Entry latency [2] of the same compound?
The Entry latency was 89.7 s.

And the Entry latency [3]?
The Entry latency was 14.3 s.

What about the Min effective dose [4] of the same compound?
The Min effective dose was 1 mg/kg.

Which Entry latency [1] does the source give for CN1[C@@H]2C[C@@H](OC(=O)[C@H](CO)c3ccccc3)C[C@H]1[C@@H]1O[C@@H]12 [SCOPOLAMINE] here?
Its Entry latency is 27.9 s.

And the Entry latency [2]?
The Entry latency was 44.5 s.

What about the Min effective dose [4] of the same compound?
The Min effective dose was 1.5 mg/kg.

How did the Min effective dose [4] turn out when NC(=O)CN1CCCC1=O was run?
Its Min effective dose is 30 mg/kg.

With CCC(=O)NC1CCN(S(=O)(=O)c2ccc(F)cc2)CC1 as the compound, how does the Entry latency [1] read?
The Entry latency was 85.8 s.

What about the Entry latency [2] of the same compound?
Its Entry latency is 103.4 s.

And the Entry latency [3]?
Its Entry latency is 17.6 s.

What about the Min effective dose [4] of the same compound?
Its Min effective dose is 0.1 mg/kg.

How did the Entry latency [1] turn out when CCC(=O)N1CCC(NS(=O)(=O)C(C)C)CC1 was run?
The Entry latency was 82.4 s.

And the Entry latency [2]?
Its Entry latency is 96.9 s.

And the Entry latency [3]?
Its Entry latency is 14.5 s.

And the Min effective dose [4]?
The Min effective dose was 10 mg/kg.

Which results are given for CC(=O)NC1CCN(C(=O)c2ccccc2)CC1?
Entry latency [1]: 100.7 s; Entry latency [2]: 113.5 s; Entry latency [3]: 12.8 s; Min effective dose [4]: 10 mg/kg

For CCC(=O)N1CCN(C(=O)c2ccccc2)CC1, which Min effective dose [4] is on record?
The Min effective dose was 0.01 mg/kg.

How did the Entry latency [1] turn out when CCC(=O)NC1CCN(S(=O)(=O)C(C)C)CC1 was run?
The Entry latency was 88.6 s.

What about the Entry latency [2] of the same compound?
Its Entry latency is 102.8 s.

And the Entry latency [3]?
The Entry latency was 14.2 s.

And the Min effective dose [4]?
Its Min effective dose is 10 mg/kg.

With CC(=O)N1CCN(S(=O)(=O)c2ccc(F)cc2)CC1 as the compound, how does the Min effective dose [4] read?
Its Min effective dose is 0.01 mg/kg.

Which results are given for CCC(=O)NC1CCN(C(=O)c2ccccc2)CC1?
Entry latency [1]: 103 s; Entry latency [2]: 121 s; Entry latency [3]: 18 s; Min effective dose [4]: 0.1 mg/kg

For CC(=O)N1CCN(C(=O)c2ccccc2)CC1, which Min effective dose [4] is on record?
The Min effective dose was 10 mg/kg.

For CC(=O)N1CCC(NS(=O)(=O)c2ccc(F)cc2)CC1, which Entry latency [1] is on record?
The Entry latency was 92.6 s.

And the Entry latency [2]?
The Entry latency was 126.8 s.

And the Entry latency [3]?
The Entry latency was 23.5 s.

What about the Min effective dose [4] of the same compound?
Its Min effective dose is 0.1 mg/kg.

How did the Min effective dose [4] turn out when CCC(=O)N1CCN(S(=O)(=O)c2ccc(F)cc2)CC1 was run?
Its Min effective dose is 0.01 mg/kg.
